Measurements as given in PubChem BioAssay (NCI).
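Five compound concentrations were applied to cells in 96-well plates for 48 hours; endpoints were derived by simple linear interpolation of the resulting dose-response curve. GI50 marks 50% less growth. TGI: total growth inhibition.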

What was measured:
Experiment in all cases: growth of human tumour cells (NCI), 48 h
[1] = test system: A498 renal
[2] = test system: A549 NSCLC
[3] = test system: ACHN renal
[4] = test system: BT-549 breast
[5] = test system: CAKI-1 renal
[6] = test system: CCRF-CEM leukemia
[7] = test system: COLO 205 colon
[8] = test system: DU-145 prostate
[9] = test system: EKVX NSCLC
[10] = test system: HCC-2998 colon
[11] = test system: HCT-116 colon
[12] = test system: HCT-15 colon
[13] = test system: HL-60(TB) leukemia
[14] = test system: HOP-62 NSCLC
[15] = test system: HOP-92 NSCLC
[16] = test system: HS 578T breast
[17] = test system: HT29 colon
[18] = test system: IGROV1 ovarian
[19] = test system: K-562 leukemia
[20] = test system: KM12 colon
[21] = test system: LOX IMVI melanoma
[22] = test system: M14 melanoma
[23] = test system: MALME-3M melanoma
[24] = test system: MCF7 breast
[25] = test system: MDA-MB-231 breast
[26] = test system: MDA-MB-435
[27] = test system: MOLT-4 leukemia
[28] = test system: NCI-H226 lung
[29] = test system: NCI-H23 lung
[30] = test system: NCI-H460 lung
[31] = test system: NCI-H522 lung
[32] = test system: NCI/ADR-RES ovarian
[33] = test system: OVCAR-4 ovarian
[34] = test system: OVCAR-5 ovarian
[35] = test system: OVCAR-8 ovarian
[36] = test system: PC-3 prostate
[37] = test system: RPMI-8226 leukemia
[38] = test system: RXF 393 renal
[39] = test system: SF-268 CNS
[40] = test system: SF-295 CNS
[41] = test system: SF-539 CNS
[42] = test system: SK-MEL-28 melanoma
[43] = test system: SK-MEL-5 melanoma
[44] = test system: SK-OV-3 ovarian
[45] = test system: SN12C renal
[46] = test system: SNB-19 CNS
[47] = test system: SNB-75 CNS
[48] = test system: SR leukemia
[49] = test system: SW-620 colon
[50] = test system: T-47D breast
[51] = test system: TK-10 renal
[52] = test system: U251 CNS
[53] = test system: UACC-257 melanoma
[54] = test system: UACC-62 melanoma
[55] = test system: UO-31 renal
[56] = test system: 786-0 renal
[57] = test system: SK-MEL-2 melanoma

## CN(C)c1ccc(-c2cc(-c3c[nH]c4ccccc34)nc(N)c2C#N)cc1
[1]
  GI50: 1780 nM
  TGI: 4660 nM
[2]
  GI50: 1920 nM
  TGI: 7090 nM
[3]
  GI50: 2790 nM
  TGI: 23400 nM
[4]
  GI50: 2220 nM
  TGI: 7310 nM
[5]
  GI50: 1670 nM
  TGI: 7210 nM
[6]
  GI50: 1540 nM
  TGI: 36400 nM
[7]
  GI50: 2110 nM
  TGI: 6030 nM
[8]
  GI50: 3450 nM
  TGI: 21000 nM
[9]
  GI50: 3380 nM
  TGI: 27200 nM
[10]
  GI50: 2150 nM
  TGI: 10500 nM
[11]
  GI50: 1600 nM
  TGI: 4450 nM
[12]
  GI50: 485 nM
  TGI: 10400 nM
[13]
  GI50: 1790 nM
  TGI: 6030 nM
[14]
  GI50: 1830 nM
  TGI: 6960 nM
[15]
  GI50: 2140 nM
  TGI: 5120 nM
[16]
  GI50: 2080 nM
  TGI: 6710 nM
[17]
  GI50: 1720 nM
  TGI: 6430 nM
[18]
  GI50: 2350 nM
  TGI: 17600 nM
[19]
  GI50: 653 nM
  TGI: > 100000 nM
[20]
  GI50: 1850 nM
  TGI: 8720 nM
[21]
  GI50: 1560 nM
  TGI: 3580 nM
[22]
  GI50: 1700 nM
  TGI: 4350 nM
[23]
  GI50: 1720 nM
  TGI: 4600 nM
[24]
  GI50: 1510 nM
  TGI: 10400 nM
[25]
  GI50: 2160 nM
  TGI: 10600 nM
[26]
  GI50: 466 nM
  TGI: 10100 nM
[27]
  GI50: 1890 nM
  TGI: 14100 nM
[28]
  GI50: 4230 nM
  TGI: 27000 nM
[29]
  GI50: 3130 nM
  TGI: 15700 nM
[30]
  GI50: 1060 nM
  TGI: 3500 nM
[31]
  GI50: 446 nM
  TGI: 2160 nM
[32]
  GI50: 1820 nM
  TGI: > 100000 nM
[33]
  GI50: 4780 nM
  TGI: 31600 nM
[34]
  GI50: 3170 nM
  TGI: 19100 nM
[35]
  GI50: 2780 nM
  TGI: 10700 nM
[36]
  GI50: 2790 nM
  TGI: 15600 nM
[37]
  GI50: 1950 nM
  TGI: 4890 nM
[38]
  GI50: 1300 nM
  TGI: 3130 nM
[39]
  GI50: 3890 nM
  TGI: 31900 nM
[40]
  GI50: 1860 nM
  TGI: 4140 nM
[41]
  GI50: 1330 nM
  TGI: 3050 nM
[42]
  GI50: 1780 nM
  TGI: 4600 nM
[43]
  GI50: 1840 nM
  TGI: 3600 nM
[44]
  GI50: 2050 nM
  TGI: 4880 nM
[45]
  GI50: 2870 nM
  TGI: 10800 nM
[46]
  GI50: 2960 nM
  TGI: > 100000 nM
[47]
  GI50: 1840 nM
  TGI: 8960 nM
[48]
  GI50: 419 nM
  TGI: 4210 nM
[49]
  GI50: 2160 nM
  TGI: 11300 nM
[50]
  GI50: 2320 nM
  TGI: 7830 nM
[51]
  GI50: 4100 nM
  TGI: 39800 nM
[52]
  GI50: 1530 nM
  TGI: 4210 nM
[53]
  GI50: 1890 nM
  TGI: 4740 nM
[54]
  GI50: 2050 nM
  TGI: 7270 nM
[55]
  GI50: 1880 nM
  TGI: 6370 nM

## COc1ccc(-c2cc(-c3cccc4ccccc34)n3c(n2)nc2ccccc23)cc1OC
[56]
  GI50: 1570 nM
  TGI: > 100000 nM
[2]
  GI50: 580 nM
  TGI: 15200 nM
[3]
  GI50: 461 nM
  TGI: 3350 nM
[4]
  GI50: 2270 nM
  TGI: 6090 nM
[5]
  GI50: 559 nM
  TGI: > 100000 nM
[6]
  GI50: 556 nM
  TGI: > 100000 nM
[7]
  GI50: 626 nM
  TGI: > 100000 nM
[9]
  GI50: 2790 nM
  TGI: > 100000 nM
[10]
  GI50: 1620 nM
  TGI: 4720 nM
[11]
  GI50: 1660 nM
  TGI: 49000 nM
[12]
  GI50: 926 nM
  TGI: > 100000 nM
[13]
  GI50: 419 nM
  TGI: 3290 nM
[14]
  GI50: 650 nM
  TGI: 4510 nM
[15]
  GI50: 1650 nM
  TGI: 7990 nM
[16]
  GI50: 1420 nM
  TGI: > 100000 nM
[17]
  GI50: 1910 nM
  TGI: 28200 nM
[18]
  GI50: 1480 nM
  TGI: > 100000 nM
[19]
  GI50: 1320 nM
  TGI: > 100000 nM
[20]
  GI50: 9430 nM
  TGI: > 100000 nM
[21]
  GI50: 975 nM
  TGI: 6650 nM
[22]
  GI50: 2080 nM
  TGI: > 100000 nM
[23]
  GI50: 882 nM
  TGI: 16700 nM
[24]
  GI50: 509 nM
  TGI: > 100000 nM
[25]
  GI50: 1520 nM
  TGI: > 100000 nM
[26]
  GI50: 2720 nM
  TGI: > 100000 nM
[27]
  GI50: 354 nM
  TGI: > 100000 nM
[28]
  GI50: 1160 nM
  TGI: 6700 nM
[30]
  GI50: 357 nM
  TGI: 1750 nM
[31]
  GI50: 2750 nM
  TGI: > 100000 nM
[32]
  GI50: 2070 nM
  TGI: > 100000 nM
[33]
  GI50: 4770 nM
  TGI: > 100000 nM
[34]
  GI50: 3030 nM
  TGI: > 100000 nM
[35]
  GI50: 1060 nM
  TGI: > 100000 nM
[36]
  GI50: 2500 nM
  TGI: > 100000 nM
[37]
  GI50: 1340 nM
  TGI: 4290 nM
[38]
  GI50: 2750 nM
  TGI: > 100000 nM
[39]
  GI50: 1950 nM
  TGI: > 100000 nM
[40]
  GI50: 582 nM
  TGI: 5330 nM
[41]
  GI50: 1020 nM
  TGI: 7670 nM
[57]
  GI50: 2570 nM
  TGI: 7470 nM
[42]
  GI50: 2880 nM
  TGI: > 100000 nM
[43]
  GI50: 960 nM
  TGI: 2840 nM
[44]
  GI50: 2550 nM
  TGI: 44900 nM
[45]
  GI50: 1330 nM
  TGI: > 100000 nM
[46]
  GI50: 2590 nM
  TGI: > 100000 nM
[47]
  GI50: 867 nM
  TGI: 4600 nM
[48]
  GI50: 362 nM
  TGI: > 100000 nM
[49]
  GI50: 780 nM
  TGI: > 100000 nM
[50]
  GI50: 1730 nM
  TGI: 9240 nM
[51]
  GI50: 2470 nM
  TGI: > 100000 nM
[52]
  GI50: 1160 nM
  TGI: > 100000 nM
[53]
  GI50: 2140 nM
  TGI: 40300 nM
[54]
  GI50: 1030 nM
  TGI: 7200 nM
[55]
  GI50: 675 nM
  TGI: > 100000 nM
